What was measured:
Capivasertib = compound: C1CN(CCC1(C(=O)N[C@@H](CCO)C2=CC=C(C=C2)Cl)N)C3=NC=NC4=C3C=CN4 [Capivasertib]; conditions: max 10 µM
Outline: (§1)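 Cancer cell lines in 1536-well plates (7.5 μl DMEM/F12 or RPMI, 10% FBS) were held 24 hours at 37°C and 5% CO2 and then dosed for 72 hours at a final DMSO of typically 0.2%. Viability was taken from CellTiter-Glo 2.0 luminescence, scaled between blank-well and DMSO-well means. Curves were fitted as two-parameter logistic models with a non-linear mixed effects model, from which the single-agent IC50 was taken.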

AZD1775 = compound: C=CCn1c(=O)c2cnc(Nc3ccc(N4CCN(C)CC4)cc3)nc2n1-c1cccc(C(C)(C)O)n1 [AZD1775]; conditions: max 3 µM
Outline: as §1

Trametinib = compound: CC(=O)Nc1cccc(-n2c(=O)n(C3CC3)c(=O)c3c(Nc4ccc(I)cc4F)n(C)c(=O)c(C)c32)c1 [Trametinib]; conditions: max 1 µM
Outline: as §1

Palbociclib = compound: CC(=O)c1c(C)c2cnc(Nc3ccc(N4CCNCC4)cn3)nc2n(C2CCCC2)c1=O [Palbociclib]; conditions: max 10 µM
Outline: as §1

AZD1390 = compound: CC(C)n1c(=O)n(C)c2cnc3cc(F)c(-c4ccc(OCCCN5CCCCC5)nc4)cc3c21 [AZD1390]; conditions: max 0.3 µM
Outline: as §1

Venetoclax = compound: CC1(C)CCC(CN2CCN(c3ccc(C(=O)NS(=O)(=O)c4ccc(NCC5CCOCC5)c([N+](=O)[O-])c4)c(Oc4cnc5[nH]ccc5c4)c3)CC2)=C(c2ccc(Cl)cc2)C1 [Venetoclax]; conditions: max 1 µM
Outline: as §1

Dasatinib = compound: CC1=C(C(=CC=C1)Cl)NC(=O)C2=CN=C(S2)NC3=CC(=NC(=N3)C)N4CCN(CC4)CCO [Dasatinib]; conditions: max 2 µM
Outline: as §1

SG3199 = compound: CC1=CN2[C@@H](C1)C=NC3=CC(=C(C=C3C2=O)OC)OCCCCCOC4=C(C=C5C(=C4)N=C[C@@H]6CC(=CN6C5=O)C)OC [SG3199]; conditions: max 0.001 µM
Outline: as §1

AZD2811 = compound: CCN(CCO)CCCOc1ccc2c(Nc3cc(CC(=O)Nc4cccc(F)c4)[nH]n3)ncnc2c1 [AZD2811]; conditions: max 1 µM
Outline: as §1

SN-38 = compound: CCc1c2c(nc3ccc(O)cc13)-c1cc3c(c(=O)n1C2)COC(=O)[C@]3(O)CC [SN-38]; conditions: max 0.3 µM
Outline: as §1

AZD0156 = compound: CN(C)CCCOc1ccc(-c2ccc3ncc4c(c3c2)n(C2CCOCC2)c(=O)n4C)cn1 [AZD0156]; conditions: max 3 µM
Outline: as §1

AZD4320 = compound: CN(CC[C@H](CSC1=CC=CC=C1)NC2=C(C=C(C=C2)S(=O)(=O)NC(=O)C3=CC=C(C=C3)N4CCC(CC4)[C@H](C5=CC=CC=C5C6=CC=C(C=C6)Cl)O)S(=O)(=O)C(F)(F)F)CCO [AZD4320]; conditions: max 1 µM
Outline: as §1

Alisertib = compound: COc1cc(Nc2ncc3c(n2)-c2ccc(Cl)cc2C(c2c(F)cccc2OC)=NC3)ccc1C(=O)O [Alisertib]; conditions: max 10 µM
Outline: as §1

Gefitinib = compound: COc1cc2ncnc(Nc3ccc(F)c(Cl)c3)c2cc1OCCCN1CCOCC1 [Gefitinib]; conditions: max 10 µM
Outline: as §1

Prexasertib = compound: COc1cccc(OCCCN)c1-c1cc(Nc2cnc(C#N)cn2)n[nH]1 [Prexasertib]; conditions: max 1 µM
Outline: as §1

Doxorubicin = compound: COc1cccc2c1C(=O)c1c(O)c3c(c(O)c1C2=O)C[C@@](O)(C(=O)CO)C[C@@H]3O[C@H]1C[C@H](N)[C@H](O)[C@H](C)O1 [Doxorubicin]; conditions: max 1 µM
Outline: as §1

AZD5153 = compound: COc1nnc2ccc(N3CCC(c4ccc(OCCN5CCN(C)C(=O)[C@H]5C)cc4)CC3)nn12 [AZD5153]; conditions: max 1 µM
Outline: as §1

Lapatinib = compound: CS(=O)(=O)CCNCc1ccc(-c2ccc3ncnc(Nc4ccc(OCc5cccc(F)c5)c(Cl)c4)c3c2)o1 [Lapatinib]; conditions: max 10 µM
Outline: as §1

AZD8186 = compound: C[C@@H](Nc1cc(F)cc(F)c1)c1cc(C(=O)N(C)C)cc2c(=O)cc(N3CCOCC3)oc12 [AZD8186]; conditions: max 3 µM
Outline: as §1

Crizotinib = compound: C[C@@H](Oc1cc(-c2cnn(C3CCNCC3)c2)cnc1N)c1c(Cl)ccc(F)c1Cl [Crizotinib]; conditions: max 10 µM
Outline: as §1

Savolitinib = compound: C[C@@H](c1ccc2nccn2c1)n1nnc2ncc(-c3cnn(C)c3)nc21 [Savolitinib]; conditions: max 1 µM
Outline: as §1

AZD6738 = compound: C[C@@H]1COCCN1C2=NC(=NC(=C2)C3(CC3)[S@](=N)(=O)C)C4=C5C=CNC5=NC=C4 [AZD6738]; conditions: max 10 µM
Outline: as §1

AZD5991 = compound: Cc1c2c(nn1C)CSCc1cc(n(C)n1)CSc1cc(c3ccccc3c1)OCCCc1c(C(=O)O)n(C)c3c-2c(Cl)ccc13 [AZD5991]; conditions: max 1 µM
Outline: as §1

AZD7648 = compound: Cc1cc2ncnn2cc1Nc1ncc2c(n1)n(C1CCOCC1)c(=O)n2C [AZD7648]; conditions: max 10 µM
Outline: as §1

Taselisib = compound: Cc1nc(-c2cn3c(n2)-c2ccc(-c4cnn(C(C)(C)C(N)=O)c4)cc2OCC3)n(C(C)C)n1 [Taselisib]; conditions: max 10 µM
Outline: as §1

Selumetinib = compound: Cn1cnc2c(F)c(Nc3ccc(Br)cc3Cl)c(C(=O)NOCCO)cc21 [Selumetinib]; conditions: max 10 µM
Outline: as §1

Olaparib = compound: O=C(c1cc(Cc2n[nH]c(=O)c3ccccc23)ccc1F)N1CCN(C(=O)C2CC2)CC1 [Olaparib]; conditions: max 10 µM
Outline: as §1

| Cell Line | IC50, cell viability 72 h (Capivasertib) [nM] | IC50, cell viability 72 h (AZD1775) [nM] | IC50, cell viability 72 h (Trametinib) [nM] | IC50, cell viability 72 h (Palbociclib) [nM] | IC50, cell viability 72 h (AZD1390) [nM] | IC50, cell viability 72 h (Venetoclax) [nM] | IC50, cell viability 72 h (Dasatinib) [nM] | IC50, cell viability 72 h (SG3199) [nM] | IC50, cell viability 72 h (AZD2811) [nM] | IC50, cell viability 72 h (SN-38) [nM] | IC50, cell viability 72 h (AZD0156) [nM] | IC50, cell viability 72 h (AZD4320) [nM] | IC50, cell viability 72 h (Alisertib) [nM] | IC50, cell viability 72 h (Gefitinib) [nM] | IC50, cell viability 72 h (Prexasertib) [nM] | IC50, cell viability 72 h (Doxorubicin) [nM] | IC50, cell viability 72 h (AZD5153) [nM] | IC50, cell viability 72 h (Lapatinib) [nM] | IC50, cell viability 72 h (AZD8186) [nM] | IC50, cell viability 72 h (Crizotinib) [nM] | IC50, cell viability 72 h (Savolitinib) [nM] | IC50, cell viability 72 h (AZD6738) [nM] | IC50, cell viability 72 h (AZD5991) [nM] | IC50, cell viability 72 h (AZD7648) [nM] | IC50, cell viability 72 h (Taselisib) [nM] | IC50, cell viability 72 h (Selumetinib) [nM] | IC50, cell viability 72 h (Olaparib) [nM] |
| --- | --- | --- | --- | --- | --- | --- | --- | --- | --- | --- | --- | --- | --- | --- | --- | --- | --- | --- | --- | --- | --- | --- | --- | --- | --- | --- | --- |
| NCI-H209 (Small Cell Lung Carcinoma) | > 10000 | 373 | > 1000 | > 10000 | > 300 | 978 | > 2000 | > 1 | 800 | 0.637 | > 3000 | 18.4 | 7740 | > 10000 | 18.1 | 281 | > 1000 | > 10000 | > 3000 | > 10000 | > 1000 | 2110 | > 1000 | > 10000 | > 10000 | > 10000 | 1030 |
| BPH-1 (Non-Cancerous) | > 10000 | 882 | 80.2 | > 10000 | > 300 | > 1000 | 127 | > 1 | > 1000 | 6.84 | > 3000 | > 1000 | 1350 | 5900 | > 1000 | 312 | 69.4 | 836 | > 3000 | > 10000 | > 1000 | > 10000 | > 1000 | > 10000 | 379 | 4720 | > 10000 |
| Hs-746T (Gastric Carcinoma) | > 10000 | 1440 | 254 | > 10000 | > 300 | > 1000 | > 2000 | > 1 | > 1000 | > 300 | > 3000 | > 1000 | > 10000 | > 10000 | 66.4 | > 1000 | 833 | > 10000 | > 3000 | 683 | 40.9 | 9890 | > 1000 | > 10000 | > 10000 | > 10000 | > 10000 |
| BE2-M17 (Neuroblastoma) | > 10000 | 900 | 127 | > 10000 | > 300 | > 1000 | > 2000 | > 1 | > 1000 | 14.5 | > 3000 | > 1000 | 1910 | > 10000 | 24.9 | 425 | > 1000 | > 10000 | > 3000 | 8330 | > 1000 | 4840 | 324 | > 10000 | 2620 | 9300 | > 10000 |
| HuH-7 (Hepatocellular Carcinoma) | > 10000 | > 3000 | > 1000 | > 10000 | > 300 | > 1000 | > 2000 | > 1 | > 1000 | > 300 | > 3000 | > 1000 | > 10000 | > 10000 | > 1000 | > 1000 | > 1000 | > 10000 | > 3000 | > 10000 | > 1000 | > 10000 | > 1000 | > 10000 | > 10000 | > 10000 | > 10000 |
| ALL-PO (B-Lymphoblastic Leukemia) | 7800 | 510 | > 1000 | 4650 | > 300 | 733 | > 2000 | > 1 | 6.76 | 2.05 | > 3000 | 21.4 | 55.9 | > 10000 | 17.7 | 166 | 67.2 | 5960 | > 3000 | 1810 | > 1000 | 2120 | 57.4 | > 10000 | 5290 | > 10000 | 7820 |
| KMRC-20 (Kidney Carcinoma) | > 10000 | 1290 | > 1000 | > 10000 | > 300 | > 1000 | 875 | > 1 | > 1000 | 32.8 | > 3000 | > 1000 | 6920 | > 10000 | 31.4 | > 1000 | > 1000 | > 10000 | > 3000 | > 10000 | > 1000 | > 10000 | > 1000 | > 10000 | > 10000 | > 10000 | > 10000 |
| HeLa (Cervical Carcinoma) | > 10000 | 893 | > 1000 | > 10000 | > 300 | > 1000 | > 2000 | > 1 | > 1000 | > 300 | > 3000 | > 1000 | > 10000 | > 10000 | 105 | > 1000 | > 1000 | > 10000 | > 3000 | > 10000 | > 1000 | > 10000 | > 1000 | > 10000 | > 10000 | > 10000 | > 10000 |
